Data set [1] in a line: Dog PK, crystalline compound 2 suspension injected intramuscularly (Table 24A). Type of data set: in vivo. Set-up: Clast: unit not given here. To be noted: plasma analyte = labelled substance; for half-life / plasma exposure (in words): after IM crystalline Compound 2 10 mg/kg suspension. How it is done: Compound 2 was dosed in dog at 10 mg/kg (Injection volume: 0.5 mL/kg). The material was formulated as a 20 mg/mL suspension in 3% TPGS and 1% HPMC E5. […] Half-life of ELQ-300 was about […] as that of compound 2 (205 and 124 respectively).

Data set [2] in a line: Key in vitro ADME for Compound 2 (Table 36). To be noted: for half-life: read-out: Hepatocyte T1/2.
The subject of a further data set is sporozoites. Kind of data set: Sporozoite challenge at day 14 following IM administration of Compound 2 (percent protection, FIG. 2A). Type of data set: in vivo, mouse. To be noted: IM Compound 2. How it is done: The exposure is not highly variable between animals in a given group. The Ctrough is about 83±32 nM for animals that are protected from infection.

Data set [3] is described as follows: Atovaquone plasma concentration following PO administration of Compound 27 (Table 29). Type of data set: in vivo, mice. The conditions noted are these: Compound 27, PO; 28 d. How it is done:
Animals (Male CD-1 mice, 7-9 weeks) were obtained from an approved vendor (SLAC Laboratory Animal Co. Ltd., Shanghai, China; or SIPPR-B&K Laboratory Animal Co. Ltd., Shanghai, China).
Animals were fasted at least 12 hours prior to the administration. All animals had access to Certified Rodent Diet (Catalog #M01-F, SLAC Laboratory Animal Cl. Ltd., Shanghai, China) ad libitum 4 hours post dosing.
Appropriate amount of test compound was accurately weighed and mixed with appropriate volume of vehicle to get a clear solution or a uniform suspension, vortexing or sonication in water bath was sometimes needed. The formulations were prepared on the day of dosing. Animals were dosed within four hours after the formulation was prepared. Two 20 μL aliquots of each formulation were removed from each of the formulation solutions, transferred into 1.5 mL of polypropylene microcentrifuge tubes and run dose validation by LC/UV or LC-MS/MS.
The PO dose formulation was administered via oral gavage following facility SOPs. […]
• Aliquots of the formulations were collected in the middle position of each dose formulation in duplicate. • The concentrations of the test compound in dose formulation samples were determined by the LC/UV or LC/MS/MS method. […]
Plasma concentration versus time data was analyzed by non-compartmental approaches using the Phoenix WinNonlin 6.3 software program. […]

[4] abbreviates: after IM crystalline Compound 2 10 mg/kg, 20 mg/mL suspension in 3% TPGS, 1% HPMC E5.

The source of these data is patent US11485697B2, “Antimalarial compositions and uses thereof” (THE SCRIPPS RESEARCH INSTITUTE, priority 2016, dated 2022).

One may read the AUC(0-inf) as total exposure, with the tail of the curve extrapolated. For orientation: AUC(0-t) means the area under the concentration-time curve up to a stated or last time point. One may read the CL/F as the apparent clearance, not corrected for the fraction that reaches the circulation. One may read the Cmax as the maximum level reached in the sampled fluid or tissue. The term Tmax denotes the time from dosing to the highest level.

Regarding `CCCC(=O)OCOc1c(-c2ccc(Oc3ccc(OC(F)(F)F)cc3)cc2)c(C)nc2cc(OC)c(Cl)cc12` [Compound 2, (6-chloro-7-methoxy-2-methyl-3-(4-(4-(trifluoromethoxy)phenoxy)phenyl)quinolin-4-yloxy)methyl butyrate], in data set [1], the half-life was 124 h and the “plasma exposure (in words)” value is “low but detectable throughout the duration of the study”. In addition, in data set [1] (setting [4]), the total exposure AUC(0-inf) worked out at 18.1 µM·h, the AUC(0-t) was 16.4 µM·h, the CL/F was found to be 14.4 mL/min/kg and the Clast is 4.5 (4.7). For the same compound, in data set [1] (setting [4]), the Cmax worked out at 730 nM, the T1/2 is reported as 124 (34) h and the Tmax came to 3 h. Also, the half-life in data set [2] (Dog hepatocytes) was found to be 0.367 h. Moreover, the “Liver S9 % remaining after 2 hours” value in data set [2] (Dog liver S9) is 47%. The “Plasma % remaining after 2 hours” value in data set [2] (Dog plasma) is 83%. Besides, the half-life in data set [2] (Human hepatocytes) came out at 1.28 h. Also, the “Liver S9 % remaining after 2 hours” value in data set [2] (Human liver S9) is recorded as 35%. Further, the “Plasma % remaining after 2 hours” value in data set [2] (Human plasma) is reported as 82%. Besides, the “Plasma % remaining after 2 hours” value in data set [2] (Monkey plasma) came out at 85%. In data set [2] (Mouse plasma), the “Plasma % remaining after 2 hours” value was determined as 0%. Further, the “Plasma % remaining after 2 hours” value in data set [2] (Rat plasma) amounted to 0%. In addition, the “Ctrough (ELQ-300) for animals that are protected from infection” value in the data set on sporozoites is “about 83±32 nM”.
For the compound `COc1cc2[nH]c(C)c(-c3ccc(Oc4ccc(OC(F)(F)F)cc4)cc3)c(=O)c2cc1Cl` [ELQ-300, 6-chloro-7-methoxy-2-methyl-3-(4-(4-(trifluoromethoxy)phenoxy)phenyl)quinolin-4(1H)-one, reference compound], in data set [1], the half-life was 205 h and the “plasma exposure (in words)” value is listed as “several orders of magnitude higher than that of Compound 2”. In data set [1] (setting [4]), this compound showed an AUC(0-inf) of 1290 µM·h, an AUC(0-t) of 1140 µM·h, a CL/F of 0.23 mL/min/kg and a Cmax of 4640 nM. Besides, in data set [1] (setting [4]), the T1/2 is reported as 205 (39) h and the Tmax was 48 h.
In the case of `CCCCCCCCCC(=O)OC1=C(C2CCC(c3ccc(Cl)cc3)CC2)C(=O)c2ccccc2C1=O` (stereo not shown) [Compound 27, 3-((1r,4r)-4-(4-chlorophenyl)cyclohexyl)-1,4-dioxo-1,4-dihydronaphthalen-2-yl decanoate], in data set [3], the “average atovaquone plasma concentration” value is on record as “BQL”.
